System: Z. mobilis strain 8b
Test: Effect of acetamide and acetic acid on Zymomonas growth (toxicity test in shake flasks)
Type: cell-based, Zymomonas mobilis
Settings: pH 6.0, 30° C., 150 rpm, FIG. 1
Excerpt: Fermentation medium was composed of 10 g/L yeast extract, 2 g/L KH2PO4, 70 g/L glucose, 40 g/L xylose and 0.1 M MES buffer.

[1] = medium supplemented with 6 g/L acetamide vs unsupplemented control
[2] = medium supplemented with 7.2 g/L acetic acid vs unsupplemented control

| Compound | final density of Z. mobilis [1] | growth rate of Z. mobilis [1] | cell yield (as measured by dry cell mass) [2] | growth rate of Z. mobilis [2] |
| --- | --- | --- | --- | --- |
| CC(N)=O [acetamide] | no influence | no influence |  |  |
| CC(=O)O [acetic acid] |  |  | lower cell yield | reduced growth rate |
